Laboratory results reported in the NIST ThermoML archive (doi:10.1016/j.tca.2013.08.007).

Assay: mn = molality of the nth substance listed, in mol/kg
Details: 101 kPa, Liquid, Vibrating tube method

[Cl-].[Na+] [sodium chloride] + O
mass density [kg/m3]
Details	m1 = 0.2	m1 = 0.4	m1 = 0.6	m1 = 0.8	m1 = 1	m1 = 1.5
288.15 K	1007.43	1015.66	1023.65	1031.47	1039.16	1058.09
298.15 K	1005.16	1013.14	1020.96	1028.64	1036.19	1054.58
308.15 K	1002.07	1009.91	1017.59	1025.13	–	1050.69
318.15 K	998.17	1005.91	–	1020.82	1028.35	1046.38
